ChEMBL document CHEMBL5046260, “Anti-inflammatory Dimeric Tetrahydroxanthones from an Endophytic Muyocopron laterale” (J Nat Prod, 2022)

How the values were obtained:
RAW264.7 [1] = test: Antiinflammatory activity in mouse RAW 264.7 cells assessed as inhibition of LPS-induced NO production measured after 24 hrs by Griess assay; format: functional, cell-based; details: RAW264.7, 24 h
RAW264.7 [2] = test: Antiinflammatory activity in mouse RAW 264.7 cells assessed as inhibition of LPS-induced NO production at 10 uM measured after 24 hrs by Griess assay relative to control; format: functional; parameters: scale not given: the % may be the effect or the level left

| Compound | IC50 (RAW264.7 [1]) [µM] | Activity (RAW264.7 [2]) [%] |
| --- | --- | --- |
| CO[C@H]1CC(=O)O[C@@H]1[C@@]1(C)CC(=O)c2c(cc(C)c(-c3c(C)cc4c(c3O)C(=O)C3=C(O)C[C@H](OC)[C@H](O)[C@]3(C)O4)c2O)O1 | > 10 | 13.2 |
| CO[C@H]1CC(=O)O[C@@H]1[C@@]1(C)CC(=O)c2c(cc(C)c(-c3c(C)cc4c(c3O)C(=O)C[C@](C)([C@H]3OC(=O)C[C@@H]3OC)O4)c2O)O1 | 5.2 | 72 |
| CO[C@H]1CC=C2C(=O)c3c(cc(C)c(-c4c(C)cc5c(c4O)C(=O)C4=C(O)C[C@H](OC)[C@H](O)[C@]4(C)O5)c3O)O[C@@]2(C)[C@H]1O | 1.3 | 89.8 |
| CO[C@H]1CC(=O)O[C@@H]1[C@@]1(C)CC(=O)c2c(cc(C)c(-c3c(C)cc(O)c4c3O[C@](C)([C@H]3OC(=O)C[C@@H]3OC)CC4=O)c2O)O1 | > 10 | 7.6 |
| CO[C@H]1CC(O)=C2C(=O)c3c(cc(C)c(-c4c(C)cc5c(c4O)C(=O)C4=C(O)C[C@H](OC)[C@H](O)[C@]4(C)O5)c3O)O[C@@]2(C)[C@H]1O | > 10 | 52.7 |
| CO[C@H]1CC(=O)O[C@@H]1[C@]1(C)CC(=O)c2c(cc(C)c(-c3c(C)cc4c(c3O)C(=O)C3=C(O)C[C@H](OC)[C@H](O)[C@]3(C)O4)c2O)O1 | > 10 | 36.6 |

Further lines, with some results ahead:

| IC50 (RAW264.7 [1]) [µM] | Compound | Activity (RAW264.7 [2]) [%] |
| --- | --- | --- |
| > 10 | CO[C@H]1CC(=O)O[C@@H]1[C@]1(C)CC(=O)c2c(O)cc(C)c(-c3c(C)cc4c(c3O)C(=O)C3=CC[C@H](OC)[C@H](O)[C@]3(C)O4)c2O1 | 33.2 |
| > 10 | CO[C@H]1CC(=O)O[C@@H]1[C@]1(C)CC(=O)c2c(cc(C)c(-c3c(C)cc4c(c3O)C(=O)C[C@@](C)([C@H]3OC(=O)C[C@@H]3OC)O4)c2O)O1 | 5.9 |
| > 10 | CO[C@H]1CC(=O)O[C@@H]1[C@@]1(C)CC(=O)c2c(cc(C)c(-c3c(C)cc4c(c3O)C(=O)C[C@@](C)([C@H]3OC(=O)C[C@@H]3OC)O4)c2O)O1 | 16.2 |
| 2.2 | COc1cc(/C=C/C(=O)CC(=O)/C=C/c2ccc(O)c(OC)c2)ccc1O [CURCUMIN] | 79.2 |
| > 10 | CO[C@H]1CC(=O)O[C@@H]1[C@]1(C)CC(=O)c2c(O)cc(C)c(-c3c(C)cc4c(c3O)C(=O)C3=C(O)C[C@H](OC)[C@H](O)[C@]3(C)O4)c2O1 | 52.7 |
| 5.1 | CO[C@H]1CC(=O)O[C@@H]1[C@@]1(C)CC(=O)c2c(cc(C)c(-c3c(C)cc4c(c3O)C(=O)C3=CC[C@H](OC)[C@H](O)[C@]3(C)O4)c2O)O1 | 84.4 |
